The experiment has as its target T1, TbQSOX (Trypanosoma brucei, UniProt Q585M6).
T1 sequence (Q585M6 20-485): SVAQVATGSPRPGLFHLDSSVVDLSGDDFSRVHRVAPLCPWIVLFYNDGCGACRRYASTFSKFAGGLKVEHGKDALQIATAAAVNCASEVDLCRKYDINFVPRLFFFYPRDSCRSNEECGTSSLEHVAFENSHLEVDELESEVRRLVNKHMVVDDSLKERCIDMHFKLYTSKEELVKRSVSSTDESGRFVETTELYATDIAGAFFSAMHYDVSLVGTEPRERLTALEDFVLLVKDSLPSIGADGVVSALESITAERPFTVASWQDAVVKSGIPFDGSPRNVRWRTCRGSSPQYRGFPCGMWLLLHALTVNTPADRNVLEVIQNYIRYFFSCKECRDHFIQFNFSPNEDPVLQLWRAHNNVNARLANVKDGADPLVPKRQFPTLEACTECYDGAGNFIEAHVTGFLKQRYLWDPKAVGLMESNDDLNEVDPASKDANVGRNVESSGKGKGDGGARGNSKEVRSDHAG
In words: UV/Vis spectrum of bound flavin in purified protein. Type of experiment: binding. The following applies: 50 mM phosphate pH 7.5, 1 mM EDTA; prosthetic group in Erv/ALR domain.

Molecules are shown by their SMILES.

Take `Cc1cc2nc3c(=O)[nH]c(=O)nc-3n(C[C@H](O)[C@H](O)[C@H](O)COP(=O)(O)OP(=O)(O)OC[C@H]3O[C@@H](n4cnc5c(N)ncnc54)[C@H](O)[C@@H]3O)c2cc1C` [FAD]: the “UV/Vis spectrum of bound flavin in purified protein” value was “found to be a stable, monomeric, FAD-containing protein”.

Source of the values: paper PMC2831140 (Biochemistry, 2010).
